Reference: the supplement of paper PMC10307832

Key:
Assay in all cases: relative viability (nuclei count vs DMSO), 5 days (fraction); higher = more cells survive
Adavosertib = compound: C=CCn1c(=O)c2cnc(Nc3ccc(N4CCN(C)CC4)cc3)nc2n1-c1cccc(C(C)(C)O)n1 [Adavosertib]
Method in brief: (§1)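 Lung cancer cell lines received five library-drug doses (not always all listed) spaced by √10, pinned on vehicle-anchored 1536-well plates after an overnight stay at 37 °C. Five days later, with no medium change, nuclei were Hoechst-stained, imaged at 4× and counted with MetaXpress. Viability is treated-well nuclei relative to vehicle-well nuclei, as a median across plates. Passing plates had control CV below 25% and at least one doubling.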

Nelarabine = compound: COc1nc(N)nc2c1ncn2[C@@H]1O[C@H](CO)[C@@H](O)[C@@H]1O [Nelarabine]
Method in brief: as §1

Adavosertib + Alpelisib = compound: C=CCn1c(=O)c2cnc(Nc3ccc(N4CCN(C)CC4)cc3)nc2n1-c1cccc(C(C)(C)O)n1 [Adavosertib] + Cc1nc(NC(=O)N2CCC[C@H]2C(N)=O)sc1-c1ccnc(C(C)(C)C(F)(F)F)c1 [Alpelisib] (partner 2 µM)
Method in brief: (§2)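 For relative viability, nuclei counts in treated wells were divided by those in vehicle wells. Lung cancer cell lines had been pin-tool dosed in 1536-well plates the day after seeding and cultured for 5 days, then fixed and stained in one step (final 0.05% Triton X-100, 1% formaldehyde, 1 ug/ml Hoechst) and imaged at 4×. Doses were one drug alone or a fixed anchor-drug dose plus five library-drug doses (not always all listed) in √10 steps, and values are duplicate-plate medians.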

Nelarabine + Pemetrexed = compound: COc1nc(N)nc2c1ncn2[C@@H]1O[C@H](CO)[C@@H](O)[C@@H]1O [Nelarabine] + Nc1nc2[nH]cc(CCc3ccc(C(=O)N[C@@H](CCC(=O)O)C(=O)O)cc3)c2c(=O)[nH]1 [Pemetrexed] (partner 0.2 µM)
Method in brief: as §2

Cell Line | relative viability (Adavosertib; 0.01 µM) | relative viability (Adavosertib; 0.03162 µM) | relative viability (Adavosertib; 0.1 µM) | relative viability (Adavosertib; 0.3162 µM) | relative viability (Nelarabine; 0.01 µM) | relative viability (Nelarabine; 0.03162 µM) | relative viability (Nelarabine; 0.1 µM) | relative viability (Nelarabine; 0.3162 µM) | relative viability (Nelarabine; 1 µM) | relative viability (Adavosertib + Alpelisib; first compound 0.01 µM) | relative viability (Adavosertib + Alpelisib; first compound 0.03162 µM) | relative viability (Adavosertib + Alpelisib; first compound 0.1 µM) | relative viability (Adavosertib + Alpelisib; first compound 0.3162 µM) | relative viability (Nelarabine + Pemetrexed; first compound 0.01 µM) | relative viability (Nelarabine + Pemetrexed; first compound 0.03162 µM) | relative viability (Nelarabine + Pemetrexed; first compound 0.1 µM) | relative viability (Nelarabine + Pemetrexed; first compound 0.3162 µM) | relative viability (Nelarabine + Pemetrexed; first compound 1 µM)
HCC-366 | 1.04 | 1.05 | 0.998 | 1.01 | 1.28 | 0.865 | 0.982 | 1.08 | 1.02 | 0.47 | 0.435 | 0.501 | 0.509 | 0.204 | 0.146 | 0.202 | 0.225 | 0.22
HCC-827 | 1.04 | 1.06 | 1.08 | 1.03 | 1.03 | 0.93 | 0.97 | 0.828 | 0.823 | 1 | 1.05 | 0.995 | 0.838 | 0.231 | 0.235 | 0.27 | 0.287 | 0.231
HOP-62 | 1.03 | 1.1 | 1.08 | 1.18 | 1.02 | 1.02 | 1.06 | 1.01 | 1.01 | 0.924 | 1.02 | 1.14 | 0.955 | 0.412 | 0.347 | 0.307 | 0.318 | 0.33
LC-2-ad | 0.979 | 1.02 | 1.01 | 1.13 | 1.14 | 1.05 | 0.984 | 1.05 | 0.989 | 0.768 | 0.84 | 0.791 | 0.804 | 0.304 | 0.249 | 0.267 | 0.286 | 0.275
LCLC-97TM1 | 0.955 | 1.02 | 1.11 | 0.71 | 0.939 |  | 0.971 | 0.95 | 0.878 |  | 0.219 | 0.23 | 0.122 |  |  | 0.153 | 0.2 | 0.169
LCLC-103H | 1.03 | 0.981 | 0.954 | 0.985 | 1.15 | 1.01 | 1.03 | 1.03 | 1.07 | 0.973 | 0.926 | 1.04 | 0.94 | 0.467 | 0.447 | 0.464 | 0.446 | 0.478
LK-2 | 0.994 | 1.16 | 1.08 | 1.05 | 1.28 |  | 0.978 | 1.09 | 1.14 | 1.03 | 1.23 | 1.14 | 1.1 | 0.191 |  | 0.26 | 0.273 | 0.294
LOU-NH91 | 0.956 | 0.992 | 0.974 | 0.918 | 0.948 | 0.944 | 0.935 | 1.02 | 0.956 | 0.704 | 0.758 | 0.731 | 0.66 | 0.385 | 0.35 | 0.442 | 0.329 | 0.381
LU99A | 1.03 | 0.977 | 0.894 | 0.924 | 0.965 | 0.952 | 0.956 | 0.946 | 1.07 | 0.48 | 0.511 | 0.476 | 0.319 | 0.197 | 0.154 | 0.173 | 0.192 | 0.223
